How the values were obtained:
[1] = target: T1, PDE5A1 (human PDE5 from platelets) (Homo sapiens, UniProt O76074); test: Inhibition of type 5 phosphodiesterase (PDE5) activity, modified SPA test; type: biochemical; settings: PDE5-containing human platelet lysate, 0.5 μM cGMP, value classes, read-out: PDE5A1 inhibitory values [measured as −logIC50 (mol/l)] (converted)
T1 construct: from tissue; host or cells: platelets from fresh blood of human donors (10,000 g supernatant of sonified platelets)
Procedure, shortened: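 Enzyme source: human platelet lysate (10,000 g supernatant), with 1 μM motapizone and 10 nM PDE2 inhibitor present. SPA format in 20 mM Tris pH 7.4, 5 mM Mg2+, 0.5 μM cGMP with [3H]cGMP tracer; 5 min preincubation at 37 °C, 15 min reaction, stopped with IBMX-containing beads. IC50 by non-linear regression.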

[2] = tested on: anaesthetised male Sprague Dawley rats; test: Phenylephrine-induced acute arterial hypertension and SNP-induced blood pressure response (MAP); type: in vivo; settings: 3 mg/kg orally 90 min prior to SNP (30 μg/kg i.v.); continuous i.v. PE-infusion; vs. placebo
Source text: Nitric oxide regulates smooth muscle tone by elevation of cGMP via activation of guanylate cyclase and subsequent activation of cyclic GMP-dependent protein kinase. The amplitude and duration of the cGMP signal in smooth muscle is largely regulated by cGMP-specific cyclic nucleotide phosphodiesterase 5 (PDE5). […] The aim of the study was to evaluate the effects of the selective PDE5 inhibitors described in this present subject matter on phenylephrine-induced acute arterial hypertension and sodium-nitroprusside (SNP) induced blood pressure response in anaesthetised male Sprague Dawley rats.
The test compound (suspended in a 4% w/v aqueous methylcellulose solution 3 mg/kg) or placebo (i.e. 4% aqueous methylcellulose solution) is administered orally to conscious Sprague Dawley rats 90 min prior to SNP administration. 40 min later, rats are anaesthetised by intramuscular administration of 80 mg/kg ketamine-HCl+4 mg/kg xylazin-HCl and ventilated with ˜1.5% isoflurane in a mixture of ambient air and 40% oxygen. Catheters for i.v. PE- and SNP-administration and recording of mean arterial blood pressure (MAP) are inserted. […] To assess the effect of test compounds (PDE5 inhibitory activity) in comparison to placebo, MAP response is analysed. […]

Row | IC50 [1] [nM] | SMILES | efficacy (% change vs. control), corr. AUCMAP 0-180 s following SNP-administration [2] [%]
1 | < 1 | CC(=O)N1CCC(NC(=O)c2c(C)[nH]c3c(-c4c(OCC5CC5)ccc5c4OCO5)ccnc23)CC1 [Example E01, N-(1-Acetylpiperidin-4-yl)-7-[5-(cyclopropylmethoxy)-1,3-benzodioxol-4-yl]-2-methyl-1H-pyrrolo[3,2-b]pyridine-3-carboxamide] | ~−27
2 | < 1 | Cc1[nH]c2c(-c3c(OCC4CC4)ccc4c3OCO4)ccnc2c1C(=O)NC1CCN(C(=O)[C@H](C)O)CC1 [Example F02, 7-[5-(Cyclopropylmethoxy)-1,3-benzodioxol-4-yl]-N-{1-[(2S)-2-hydroxypropanoyl]piperidin-4-yl}-2-methyl-1H-pyrrolo[3,2-b]pyridine-3-carboxamide] | ~−27
